Measurements: patent US9688676B2, “Tyrosine kinase inhibitors” (PRINCIPIA BIOPHARMA INC., priority 2015, dated 2017)

Target: BTK (Homo sapiens (Human), UniProt Q06187)
Test: BTK enzymatic activity assay (Caliper-based kinase assay)
Type: biochemical
Conditions: human recombinant BTK 0.5 nM, ATP 16 μM, 3 h room temperature
Protocol: A Caliper-based kinase assay (Caliper Life Sciences, Hopkinton, Mass.) was used to measure inhibition of BTK kinase activity of a compound of the present disclosure. […] The reaction was then terminated with EDTA, final concentration 20 mM and the phosphorylated reaction product was quantified on a Caliper Desktop Profiler (Caliper LabChip 3000). […] This value is presented as the IC50.

BTK, sequence (Q06187 whole entry): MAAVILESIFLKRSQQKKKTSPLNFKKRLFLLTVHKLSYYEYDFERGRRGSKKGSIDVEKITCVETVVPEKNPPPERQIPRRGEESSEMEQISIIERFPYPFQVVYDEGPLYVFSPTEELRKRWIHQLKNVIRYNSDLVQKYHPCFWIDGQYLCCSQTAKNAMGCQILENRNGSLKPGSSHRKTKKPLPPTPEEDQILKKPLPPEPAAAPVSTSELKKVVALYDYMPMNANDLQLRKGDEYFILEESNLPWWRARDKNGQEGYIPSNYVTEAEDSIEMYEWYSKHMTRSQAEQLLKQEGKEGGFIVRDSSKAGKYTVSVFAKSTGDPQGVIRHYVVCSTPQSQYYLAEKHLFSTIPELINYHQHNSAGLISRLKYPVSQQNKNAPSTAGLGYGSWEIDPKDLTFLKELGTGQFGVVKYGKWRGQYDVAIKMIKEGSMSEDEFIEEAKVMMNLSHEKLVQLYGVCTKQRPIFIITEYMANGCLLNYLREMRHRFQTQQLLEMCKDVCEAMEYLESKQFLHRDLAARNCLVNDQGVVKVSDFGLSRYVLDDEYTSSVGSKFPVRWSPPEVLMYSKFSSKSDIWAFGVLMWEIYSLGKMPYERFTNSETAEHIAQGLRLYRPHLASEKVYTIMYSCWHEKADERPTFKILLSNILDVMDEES

| IC50 [nM] | SMILES |
| --- | --- |
| 22.5 | CC(C)(C)OC(=O)N1CCN(C(C)(C)C=C(C#N)C(=O)N2CCC[C@@H](n3c(=O)n(-c4ccc(Oc5ccccc5)cc4)c4c(N)nccc43)C2)CC1 [Compound 43, (R)-tert-butyl 4-(5-(3-(4-amino-2-oxo-3-(4-phenoxyphenyl)-2,3-dihydro-1H-imidazo[4,5-c]pyridin-1-yl)piperidin-1-yl)-4-cyano-2-methyl-5-oxopent-3-en-2-yl)piperazine-1-carboxylate] |
| 3.3 | CC(=O)N1CCN(C(C)(C)C=C(C#N)C(=O)N2CCC[C@@H](n3c(=O)n(-c4ccc(Oc5ccccc5)cc4)c4c(N)nccc43)C2)CC1 [Compound 44, (R)-4-(4-acetylpiperazin-1-yl)-2-(3-(4-amino-2-oxo-3-(4-phenoxyphenyl)-2,3-dihydro-1H-imidazo[4,5-c]pyridin-1-yl)piperidine-1-carbonyl)-4-methylpent-2-enenitrile] |
| 3.1 | CC(C)(C=C(C#N)C(=O)N1CCC[C@@H](n2c(=O)n(-c3ccc(Oc4ccccc4)cc3)c3c(N)nccc32)C1)N1CCNCC1 [Compound 47, (R)-2-(3-(4-amino-2-oxo-3-(4-phenoxyphenyl)-2,3-dihydro-1H-imidazo[4,5-c]pyridin-1-yl)piperidine-1-carbonyl)-4-methyl-4-(piperazin-1-yl)pent-2-enenitrile] |

Further lines, the molecule ahead of its results:

| SMILES | IC50 [nM] |
| --- | --- |
| CC(C)(C=C(C#N)C(=O)N1CCC[C@@H](n2c(=O)n(-c3ccc(Oc4ccccc4)cc3)c3c(N)nccc32)C1)N1[C@@H]2CC[C@H]1COC2 [Compound 45, 2-((R)-3-(4-amino-2-oxo-3-(4-phenoxyphenyl)-2,3-dihydro-1H-imidazo[4,5-c]pyridin-1-yl)piperidine-1-carbonyl)-4-((1R,5S)-3-oxa-8-azabicyclo[3.2.1]octan-8-yl)-4-methylpent-2-enenitrile] | 25.1 |
| N#CC(=CC1(c2ccccc2)CC1)C(=O)N1CCC[C@@H](n2c(=O)n(-c3ccc(Oc4ccccc4)cc3)c3c(N)nccc32)C1 [Compound 46, (R)-2-(3-(4-amino-2-oxo-3-(4-phenoxyphenyl)-2,3-dihydro-1H-imidazo[4,5-c]pyridin-1-yl)piperidine-1-carbonyl)-3-(1-phenylcyclopropyl)acrylonitrile] | 13.1 |
| CN1CCN(C(=O)C(C)(C)C=C(C#N)C(=O)N2CCC[C@@H](n3c(=O)n(-c4ccc(Oc5ccccc5)cc4)c4c(N)nccc43)C2)CC1 [Compound 49, (R)-2-(3-(4-amino-2-oxo-3-(4-phenoxyphenyl)-2,3-dihydro-1H-imidazo[4,5-c]pyridin-1-yl)piperidine-1-carbonyl)-4,4-dimethyl-5-(4-methylpiperazin-1-yl)-5-oxopent-2-enenitrile] | 12.8 |
| CN(C)C(=O)C(C)(C)C=C(C#N)C(=O)N1CCC[C@@H](n2c(=O)n(-c3ccc(Oc4ccccc4)cc3)c3c(N)nccc32)C1 [Compound 50, (R)-5-(3-(4-amino-2-oxo-3-(4-phenoxyphenyl)-2,3-dihydro-1H-imidazo[4,5-c]pyridin-1-yl)piperidin-1-yl)-4-cyano-N,N,2,2-tetramethyl-5-oxopent-3-enamide] | 8.3 |
| N#CC(=CC1CC1(F)F)C(=O)N1CCC[C@@H](n2c(=O)n(-c3ccc(Oc4ccccc4)cc3)c3c(N)nccc32)C1 (stereo partly drawn) [Compound 52, (R)-2-(3-(4-amino-2-oxo-3-(4-phenoxyphenyl)-2,3-dihydro-1H-imidazo[4,5-c]pyridin-1-yl)piperidine-1-carbonyl)-3-(2,2-difluorocyclopropyl)acrylonitrile] | 12 |
| N#CC(=CC1[C@H]2COC[C@@H]12)C(=O)N1CCC[C@@H](n2c(=O)n(-c3ccc(Oc4ccccc4)cc3)c3c(N)nccc32)C1 (stereo partly drawn) [Compound 53, 2-((R)-3-(4-amino-2-oxo-3-(4-phenoxyphenyl)-2,3-dihydro-1H-imidazo[4,5-c]pyridin-1-yl)piperidine-1-carbonyl)-3-((1R,5S)-3-oxabicyclo[3.1.0]hexan-6-yl)acrylonitrile] | 4.2 |
